system: cultured human mast cells (CHMC); experiment: CHMC low cell density IgE activation: tryptase assay; format: cell-based; settings: Homo sapiens, Mast cell, anti-IgE
Experimental: Pellet CHMC cells (980 rpm, 10 min) and resuspend in pre-warmed MT. Add 65 ul of cells to each 96-well plate. Depending on the degranulation activity for each particular CHMC donor, load 1000-1500 cells/well. Mix four times followed by a 1 hr incubation at 37° C. […] Stimulate cells by adding 25 ul of 6× anti-IgE solution to the appropriate plates. Add 25 ul MT to un-stimulated control wells. Mix twice following addition of the anti-IgE. Incubate at 37° C. for 30 minutes. […] Spin plates at 1000 rpm for 10 min to pellet cells. Transfer 25 ul of supernatant to a 96-well black bottom plate and add 100 ul of freshly diluted tryptase substrate solution to each well. Incubate plates at room temperature for 30 min.

IC50 | Compound
> 10 µM | O=C(O)Cc1cccc(Nc2ncc(F)c(Nc3cccc(CC(=O)O)c3)n2)c1 [R935117]

same assay, conditions: anti-IgE

Compound | IC50
O=C(O)COc1ccc(Nc2ncc(F)c(Nc3ccc4c(c3)OCCO4)n2)cc1 [R926238, N2-(4-Carboxymethyleneoxyphenyl)-N4-(3,4-ethylenedioxyphenyl)-5-fluoro-2,4-pyrimidinediamine] | > 10 µM
CC1(C)Oc2cc(Nc3nc(Cl)ncc3F)cnc2NC1=O [Compound R940344] | > 10 µM
COc1cc(C(=O)NS(=O)(=O)c2ccccc2C)ccc1Cn1ncc2ccc(Nc3ncc(F)c(Nc4ccc5c(c4)OCCO5)n3)cc21 [R935323, N4-(3,4-Ethylenedioxyphenyl)-5-fluoro-N4-[1-[2-methoxy-4-(o-toluylsulfonamidocarboxy)benzyl]indazoline-6-yl]-2,4-pyrimidinediamine] | > 10 µM
CNC(=O)COc1cccc(Nc2ncc(F)c(Nc3cnc4c(c3)OC(C)(C)C(=O)N4)n2)c1 [R940345, N4-[(2,2-Dimethyl-4H-5-pyrido[1,4]oxazin-3-one)-7-yl]-5-fluoro-N2-[3-(methylaminocarbonylmethyleneoxy)phenyl]-2,4-pyrimidinediamine] | 1.71 µM
Fc1cnc(Cl)nc1Nc1ccc(OC(F)(F)F)cc1 [Compound R926875] | > 10 µM
CC1(C)CN(c2ccccn2)c2cc(Nc3nc(Cl)ncc3F)ccc2O1 [Compound R940336] | > 10 µM
CC(=O)Nc1cccc(N(C(C)=O)c2ncc(F)c(N(C(C)=O)c3cccc(N(C(C)=O)C(C)=O)c3)n2)c1 [R950245, N4-(3-N,N-Diacetylaminophenyl)-N2-(3-N-acetylaminopheny)-5-fluoro-N2,N4-pyrimidinediacetylamine] | > 10 µM
CC(=O)Nc1cccc(N(C(C)=O)c2nc(N(C(C)=O)c3cccc(N(C(C)=O)C(C)=O)c3)ncc2F)c1 [R950246, N4-(3-N-Acetylaminophenyl)-N2-(3-N,N-diacetylaminopheny)-5-fluoro-N2,N4-pyrimidinediacetylamine] | > 10 µM
N4-(1,4-Benzoxazin-7-yl)-5-fluoro-N2-(3-hydroxyphenyl)-pyrimidinediamine [R908711] | 1.76 µM
Cc1cccc(Nc2nc(Cl)ncc2F)n1 [Compound R926888] | > 10 µM
Cc1cc(Nc2ncc(F)c(Nc3ccc(O)c(C)c3)n2)ccc1O [R926469, N2,N4′-Bis(4-hydroxy-3-methylphenyl)-5-fluoro-2,4-pyrimidinediamine] | > 10 µM
Fc1cnc(Cl)nc1Nn1cccc1 [Compound R935275] | > 10 µM
Fc1cnc(Cl)nc1Nc1ccc2ncccc2c1 [Compound R920409] | > 10 µM
Fc1cnc(Cl)nc1Nc1cccc(OC(F)(F)F)c1 [Compound R920402] | > 10 µM
Fc1ccc(Nc2nc(Cl)ncc2F)cc1F [Compound R926882] | > 10 µM
CC(C)Oc1ccc(Nc2ncc(F)c(Nc3ccc4[nH]ncc4c3)n2)cc1 [R935266, 5-Fluoro-N4-(indazoline-5-yl)-N2-(4-isopropoxyphenyl)-2,4-pyrimidinediamine] | 2.97 µM
CNC(=O)COc1cccc(Nc2ncc(F)c(Nc3ccc(OC)c(CN(C)C)c3)n2)c1 [R940321, N4-(3-N,N-Dimethylaminomethylene-4-methoxyphenyl)-5-fluoro-N2-[3-(methylaminocarbonylmethyleneoxy)phenyl]-2,4-pyrimidinediamine] | > 10 µM
CNC(=O)COc1cccc(Nc2ncc(F)c(Nc3cccc(-c4nnc(-c5cccc(Cl)c5)o4)c3)n2)c1 [R926871, N4-[3-(2-(3-Chlorophenyl)-1,3,4-oxadiazol-5-yl)phenyl]-5-fluoro-N2-[3-(N-methylamino)carbonylmethyleneoxyphenyl]-2,4-pyrimidinediamine] | 2.15 µM
COC(=O)COc1cccc(Nc2ncc(F)c(Nc3ccc4[nH]ncc4c3)n2)c1 [R935269, 5-Fluoro-N4-(indazoline-5-yl)-N2-[3-(methoxycarbonylmethyleneoxy)phenyl]-2,4-pyrimidinediamine] | 1.72 µM
COc1cc(C(=O)NS(=O)(=O)c2ccccc2C)ccc1Cn1ncc2ccc(Nc3ncc(F)c(Nc4ccc(OC(C)C)cc4)n3)cc21 [R935322, 5-Fluoro-N4-(4-isopropoxyphenyl)-N2-[1-[2-methoxy-4-(o-toluylsulfonamidocarboxy)benzyl]indazoline-6-yl]-2,4-pyrimidinediamine] | 3.42 µM
COc1ccc(Nc2nc(Nc3cc(C)c(O)c(Cl)c3)ncc2F)cc1CN1CCNCC1 [R940318, N2-(3-Chloro-4-hydroxy-5-methylphenyl)-5-fluoro-N4-[3-(N-piperazinomethylene)-4-methoxyphenyl]-2,4-pyrimidinediamine] | 3.79 µM
COc1cc(C(=O)NS(=O)(=O)c2ccccc2C)ccc1Cn1ncc2ccc(Nc3ncc(F)c(Nc4cccc(O)c4)n3)cc21 [R935324, 5-Fluoro-N4-(3-hydroxyphenyl)-N2-[1-[2-methoxy-4-(o-toluylsulfonamidocarboxy)benzyl]indazoline-6-yl]-2,4-pyrimidinediamine] | > 10 µM
Fc1cnc(Cl)nc1Nc1ccc(Cl)nc1 [Compound R920400] | > 10 µM
COc1cc(Nc2nc(Nc3cccc(O)c3)ncc2F)c(OC)cc1Cl [R926860, N4-(4-Chloro-2,5-dimethoxyphenyl)-5-fluoro-N2-(3-hydroxyphenyl)-2,4-primidinediamine] | 1.95 µM
CCOC(=O)C=C1NN=C(c2cccc(Nc3nc(Cl)ncc3F)c2)O1 [Compound R926873] | > 10 µM

Now from value to compound:

IC50 | Compound
1.61 µM | COc1ccc(Nc2nc(Nc3ccc4c(cnn4C)c3)ncc2F)c(OC)n1 [R935380, N4-(2,6-Dimethoxy-3-pyridyl)-5-fluoro-N2-[1-methylindazoline-5-yl]-2,4-pyrimidinediamine]
1.38 µM | N2-(N-Ethylcarbonylmethyleneoxy-1,4-benzoxazin-6-yl)-5-fluoro-N2-[3-hydroxyphenyl)phenyl]pyrimidinediamine [R908734]
1.17 µM | CNC(=O)COc1cccc(Nc2ncc(F)c(Nc3ccc4c(c3)N(C(=N)N)CCO4)n2)c1 [R909292, N4-(4N-Carboxamidino-1,4-benzoxazin-6-yl)-5-fluoro-N2-[3-(N-methylamino)carbonylmethyleneoxyphenyl]-2,4-pyrimidinediamine]
0.926 µM | Oc1cccc(Nc2ncc(F)c(Nc3ccc4c(c3)OCCO4)n2)c1 [R926210, N4-(3,4-Ethylenedioxyphenyl)-5-fluoro-N2-(3-hydroxyphenyl)-2,4-pyrimidinediamine]
0.764 µM | CCOC(=O)C(C)(C)Oc1cccc(Nc2ncc(F)c(Nc3ccc4c(c3)OCCO4)n2)c1 [R926907, N2-[3-(Ethoxycarbonyl-1,1-dimethylmethyleneoxy)phenyl]-N4-(3,4-ethylenedioxyphenyl)-5-fluoro-2,4-pyrimidinediamine]
0.583 µM | Oc1cccc(Nc2nc(Nc3ccc4oc(CN5CCNCC5)cc4c3)ncc2F)c1 [R926770, 5-Fluoro-N4-(3-hydroxyphenyl)-N2-[2-(N-piperazinomethylene)benzofuran-5-yl]-2,4-pyrimidinediamine]
0.379 µM | CCOC(=O)C(C)(C)Oc1cccc(Nc2ncc(F)c(Nc3ccc4cc[nH]c4c3)n2)c1 [R926909, N2-[3-(Ethoxycarbonyl-1,1-dimethylmethyleneoxy)phenyl]-5-fluoro-N4-[(1H)-indol-6-yl]-2,4-pyrimidinediamine]
0.345 µM | CCOC(=O)CCn1ncc2cc(Nc3nc(Nc4ccc(OC(C)C)cc4)ncc3F)ccc21 [R935306, N4-[1-(2-Ethoxycarbonylethyl)indazoline-5-yl]-5-fluoro-N2-(4-isopropoxyphenyl)-2,4-pyrimidinediamine]
0.337 µM | O=C(COc1cccc(Nc2ncc(F)c(Nc3cccc(O)c3)n2)c1)N1CCNCC1 [R926772, 5-Fluoro-N4-(3-hydroxyphenyl)-N2-[3-(N-piperazino)carbonylmethyleneoxyphenyl]-2,4-pyrimidinediamine]
0.326 µM | COC(=O)C1Cc2cc(Nc3ncc(F)c(Nc4ccc(OCCO)nc4)n3)ccc2O1 (racemic) [R927025, (±)-N2-(2,3-Dihydro-2-methoxycarbonylbenzofuran-5-yl)-5-fluoro-N4-[2-(2-hydroxyethyleneoxy)pyridin-5-yl]-5-fluoro-2,4-pyrimidinediamine]
0.307 µM | CNC(=O)COc1cccc(Nc2ncc(F)c(Nc3cccc(SC(F)(F)F)c3)n2)c1 [R926925, 5-Fluoro-N2-[3-[(N-methylamino)carbonylmethyleneoxy]phenyl]-N4-(3-trifluoromethylthiophenyl)-2,4-pyrimidinediamine]
0.252 µM | CC(C)Oc1ccc(Nc2nc(Nc3ccc4nn(C)cc4c3)ncc2F)cc1 [R935298, 5-Fluoro-N4-(4-isopropoxyphenyl)-N2-(2-methyl-indazoline-5-yl)-2,4-pyrimidinediamine]
0.244 µM | CCOC(=O)CCn1ncc2cc(Nc3nc(Nc4cccc(O)c4)ncc3F)ccc21 [R935303, N4-[1-(2-Ethoxycarbonylethyl)indazoline-5-yl]-5-fluoro-N2-(3-hydroxyphenyl)-2,4-pyrimidinediamine]
0.226 µM | CN(C)C(=O)COc1cccc(Nc2ncc(F)c(Nc3ccc4c(c3)NCCO4)n2)c1 [R909290, N2-[3-(N,N-Dimethylaminocarbonylmethyleneoxy)phenyl]-N4-(1,4-benzoxazin-6-yl)-5-fluoro-2,4-pyrimidinediamine]
0.142 µM | CC1(C)Oc2ccc(Nc3nc(Nc4cccc(O)c4)ncc3F)cc2NC1=O [R940346, N4-[(2,2-Dimethyl-4H-benzo[1,4]oxazin-3-one)-6-yl]-5-fluoro-N2-(3-hydroxyphenyl)-2,4-pyrimidinediamine]
0.115 µM | COC(=O)c1cc2cc(Nc3ncc(F)c(Nc4ccc5c(c4)NC(=O)C(C)(C)O5)n3)ccc2o1 [R940354, N4-[(2,2-Dimethyl-4H-benzo[1,4]oxazin-3-one)-6-yl]-5-fluoro-N2-(2-methoxycarbonylbenzofur-5-yl)-2,4-pyrimidinediamine]
